Experimental findings from ChEMBL document CHEMBL5375995, “Discovery and Mechanistic Study of Novel Mycobacterium tuberculosis ClpP1P2 Inhibitors” (J Med Chem, 2023) are described below.

The target in assay [1] is T1, ClpP1P2 (Mycobacterium tuberculosis (strain ATCC 25618 / H37Rv), UniProt P9WPC3+P9WPC5). Put plainly: Inhibition of N-terminal His6-SUMO-tagged Mtb ClpP1 (7 to 200 residues)/ClpP2 (13 to 214 residues) complex expressed in Escherichia coli BL21(DE3) using Z-Gly-Gly-Leu-AMC as substrate measured for 60 mins in presence of Bz-LL by fluorescence based assay.
T1 sequence (P9WPC5 whole entry, the tested form may be a part): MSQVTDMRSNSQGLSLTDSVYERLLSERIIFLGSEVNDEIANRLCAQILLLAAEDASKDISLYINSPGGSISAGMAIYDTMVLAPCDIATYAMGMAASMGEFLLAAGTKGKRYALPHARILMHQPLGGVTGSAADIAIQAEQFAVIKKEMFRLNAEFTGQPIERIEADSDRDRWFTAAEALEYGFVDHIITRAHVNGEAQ
T1 sequence (P9WPC3 whole entry, the tested form may be a part): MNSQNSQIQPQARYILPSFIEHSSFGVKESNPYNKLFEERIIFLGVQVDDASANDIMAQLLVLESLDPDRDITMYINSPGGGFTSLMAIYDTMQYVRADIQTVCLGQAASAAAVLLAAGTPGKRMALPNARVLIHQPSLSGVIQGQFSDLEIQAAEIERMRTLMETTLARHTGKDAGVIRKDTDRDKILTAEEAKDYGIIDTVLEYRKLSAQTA
Assay [2] concerns the target T1, ClpP1P2. Put plainly: Inhibition of N-terminal His6-SUMO-tagged Mtb ClpP1 (7 to 200 residues)/ClpP2 (13 to 214 residues) complex expressed in Escherichia coli BL21(DE3) using FITC-casein as substrate measured for 1 hr in presence of Bz-LL/ATP by fluorescence based assay.
Assay [3] relates to Mycobacterium tuberculosis. As to the kind of experiment: Antibacterial activity against Mycobacterium tuberculosis H37Ra assessed as bacterial growth inhibition incubated for 24 hrs by broth microdilution method. In kind it is functional. In general terms: Broth dilution looks for growth in wells or tubes with falling amounts of substance.
Assay [4] has as its target T2, ClpP1P2 (Mycobacterium tuberculosis (strain ATCC 25618 / H37Rv)) (UniProt P9WPC5+P9WPC3). Put plainly: Binding affinity to ClpP1 in Mtb H37Ra lysate at 5 mM incubated for 4 hrs by affinity based capture method. In kind it is subcellular.
Assay [5] deals with T2, ClpP1P2 (Mycobacterium tuberculosis (strain ATCC 25618 / H37Rv)). As to the kind of experiment: Inhibition of N-terminal His6-SUMO-tagged Mtb ClpP1 (7 to 200 residues)/ClpP2 (13 to 214 residues) complex expressed in Escherichia coli BL21(DE3) using GFP-ssrA as substrate measured for 1 hr in presence of Bz-LL/ATP by fluorescence based assay.
Assay [6] is described as follows: Selectivity index, ratio of IC50 for full-length human ClpP complex ([…]) expressed in Escherichia coli BL21(DE3) using FITC-casein as substrate to IC50 for N-terminal His6-SUMO-tagged Mtb ClpP1 (7 to 200 residues)/ClpP2 (13 to 214 residues) complex expressed in Escherichia coli BL21(DE3) using Z-Gly-Gly-Leu-AMC as substrate.
Assay [7] concerns the target T1, ClpP1P2. Put plainly: Binding affinity to N-terminal His6-SUMO-tagged Mtb ClpP1 (7 to 200 residues)/ClpP2 (13 to 214 residues) complex expressed in Escherichia coli BL21(DE3) assessed as increase in thermal stability measured at 25 to 110 degreeC in presence of Bz-LL by DSF assay.
A short description of assay [8]: Inhibition of N-terminal His6-SUMO-tagged Mycobacterium smegmatis ClpP1 (3 to 200 residues)/P2 (17 to 218 residues) expressed in Escherichia coli BL21(DE3)/C1 using Z-Gly-Gly-Leu-AM as substrate measured for 60 mins in presence of Bz-LL by fluorescence based assay. Also noted: species or system Mycolicibacterium smegmatis.
For assay [9], the target named is T2, ClpP1P2 (Mycobacterium tuberculosis (strain ATCC 25618 / H37Rv)). Put plainly: Binding affinity to N-terminal His6-SUMO-tagged Mtb ClpP1 (7 to 200 residues) expressed in Escherichia coli BL21(DE3) assessed as reduction in fluorescence intensity at 25 to 100 uM incubated for 30 mins in presence of Bz-LL by spectrophotometry relative to control. Also noted: scale not given: the % may be the effect or the level left. The settings on record: dose 25-100 µM.

Assay [10] is described as follows: Inhibition of N-terminal His6-SUMO-tagged Mycobacterium smegmatis ClpP1 (3 to 200 residues)/P2 (17 to 218 residues) expressed in Escherichia coli BL21(DE3) using Z-Gly-Gly-Leu-AM as substrate measured for 60 mins in presence of Bz-LL by fluorescence based assay. Also noted: species or system Mycolicibacterium smegmatis.
In assay [11] the test system is Mycolicibacterium smegmatis. Put plainly: Antibacterial activity against Mycobacterium smegmatis mc2 155 harboring ClpC1 knockout assessed as bacterial growth inhibition incubated for 2 days by Alamar blue staining based assay. In kind it is functional. The conditions noted are these: mc2 155, 48 h, time 2 day. Background: The colour change of resazurin is a common sign of viable cells or microbes.

In assay [12] the target is ATP-dependent Clp protease ATP-binding subunit ClpC1 (Mycobacterium tuberculosis) (UniProt P9WPC9). As to the kind of experiment: Inhibition of N-terminal His6-tagged full-length Mtb ClpC1 ATPase activity expressed in Escherichia coli BL21(DE3) at 100 uM in presence of PK/LDH/ATP/NADH by spectrophotometry.
ATP-dependent Clp protease ATP-binding subunit ClpC1 (Mycobacterium tuberculosis), sequence (P9WPC9 whole entry): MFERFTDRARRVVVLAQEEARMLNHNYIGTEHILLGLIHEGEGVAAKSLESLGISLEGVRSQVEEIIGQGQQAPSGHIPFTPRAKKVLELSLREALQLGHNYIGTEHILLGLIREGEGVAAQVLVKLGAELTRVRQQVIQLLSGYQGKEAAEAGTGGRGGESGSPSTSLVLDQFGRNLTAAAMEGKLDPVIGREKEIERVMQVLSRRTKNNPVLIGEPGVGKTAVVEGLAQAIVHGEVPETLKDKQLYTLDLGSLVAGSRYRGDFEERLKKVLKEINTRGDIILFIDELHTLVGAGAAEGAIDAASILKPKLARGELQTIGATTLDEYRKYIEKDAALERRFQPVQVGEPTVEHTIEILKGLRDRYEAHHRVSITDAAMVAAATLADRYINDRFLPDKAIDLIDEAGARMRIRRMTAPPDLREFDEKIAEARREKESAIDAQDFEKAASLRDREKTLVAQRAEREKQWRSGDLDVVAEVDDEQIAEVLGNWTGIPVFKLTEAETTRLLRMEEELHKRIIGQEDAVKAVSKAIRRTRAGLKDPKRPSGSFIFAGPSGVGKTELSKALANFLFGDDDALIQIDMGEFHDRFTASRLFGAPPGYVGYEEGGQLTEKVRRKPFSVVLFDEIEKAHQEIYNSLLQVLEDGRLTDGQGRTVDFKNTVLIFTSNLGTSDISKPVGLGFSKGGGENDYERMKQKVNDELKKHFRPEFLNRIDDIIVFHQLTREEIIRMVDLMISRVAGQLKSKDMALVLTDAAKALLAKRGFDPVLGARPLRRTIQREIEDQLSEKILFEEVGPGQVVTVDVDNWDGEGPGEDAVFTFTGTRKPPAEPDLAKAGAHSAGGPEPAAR
Assay [13] has as its system Mycolicibacterium smegmatis. As to the kind of experiment: Antibacterial activity against wild-type Mycobacterium smegmatis mc2 155 harboring ClpP-tetoff mutant assessed as bacterial growth inhibition upto 512 uM incubated for 2 days in presence of ATc by Alamar blue staining based assay. In kind it is functional, organism-based. The conditions noted are these: time 2.0 day.

In assay [14] the test system is Mycobacterium tuberculosis. As to the kind of experiment: Binding affinity to N-terminal His6-SUMO-tagged Mtb ClpP1 (7 to 200 residues)/ClpP2 (13 to 214 residues) complex expressed in Escherichia coli BL21(DE3) assessed as reduction in fluorescence intensity at 25 to 100 uM incubated for 30 mins in presence of Bz-LL by spectrophotometry relative to control. Also noted: scale not given: the % may be the effect or the level left. The conditions noted are these: dose 25-100 µM.

For assay [15], the target named is ATP-dependent Clp protease ATP-binding subunit ClpC1 (Mycobacterium tuberculosis) (UniProt P9WPC9). As to the kind of experiment: Inhibition of N-terminal His6-tagged full-length Mtb ClpC1 creatine kinase activity expressed in Escherichia coli BL21(DE3) using creatine phosphate as substrate at 100 uM preincubated for 10 mins followed by substrate addition measured after 10 mins in presence of ADP by Kinase-Glo assay. The conditions noted are these: time 20.0 min.

Assay [16] is described as follows: Selectivity index, ratio of IC50 for full-length human ClpP complex ([…]) expressed in Escherichia coli BL21(DE3) using Ac-WLA-AMC as substrate to IC50 for N-terminal His6-SUMO-tagged Mtb ClpP1 (7 to 200 residues)/ClpP2 (13 to 214 residues) complex expressed in Escherichia coli BL21(DE3) using Z-Gly-Gly-Leu-AMC as substrate.
The subject of assay [17] is Mycolicibacterium smegmatis. Put plainly: Antibacterial activity against wild-type Mycobacterium smegmatis mc2 155 assessed as bacterial growth inhibition upto 512 uM incubated for 2 days in presence of ATc by Alamar blue staining based assay. In kind it is functional, organism-based. The settings on record: time 2.0 day.
Assay [18] concerns Mycolicibacterium smegmatis. Put plainly: Antibacterial activity against Mycobacterium smegmatis mc2 155 harboring ClpX knockout assessed as bacterial growth inhibition incubated for 2 days by Alamar blue staining based assay. In kind it is functional. The conditions noted are these: mc2 155, 48 h, time 2 day.
In assay [19] the test system is Mycolicibacterium smegmatis. As to the kind of experiment: Antibacterial activity against wild-type Mycobacterium smegmatis mc2 155 assessed as bacterial growth inhibition incubated for 2 days by Alamar blue staining based assay. In kind it is functional. The settings on record: mc2 155, 48 h, time 2 day.
Assay [20] in a line: Inhibition of Staphylococcus aureus […] complex expressed in Escherichia coli BL21(DE3) using GFP-ssrA as substrate incubated for 3 hrs in presence of Bz-LL/ATP/ONC212 by Coomassie blue staining based assay.
In assay [21] the target is T1, ClpP1P2. Put plainly: Inhibition of N-terminal His6-SUMO-tagged Mtb ClpP1 (7 to 200 residues)/ClpP2 (13 to 214 residues) complex expressed in Escherichia coli BL21(DE3) using GFP-ssrA as substrate incubated for 3 hrs in presence of Bz-LL/ATP by Coomassie blue staining based assay.
Assay [22] addresses T2, ClpP1P2 (Mycobacterium tuberculosis (strain ATCC 25618 / H37Rv)). Put plainly: Inhibition of N-terminal His6-SUMO-tagged Mtb ClpP1 (7 to 200 residues)/ClpP2 (13 to 214 residues) complex expressed in Escherichia coli BL21(DE3) using Z-Gly-Gly-Leu-AMC as substrate at 10 uM incubated for 40 mins in presence of Bz-LL by fluorescence based assay.
For a further assay, the system named is Staphylococcus aureus. Put plainly: Antibacterial activity against Staphylococcus aureus assessed as bacterial growth inhibition incubated for 24 hrs by broth microdilution method. In kind it is functional.
The test system of assay [23] is Mycobacterium tuberculosis. Put plainly: Antibacterial activity against Mycobacterium tuberculosis H37Rv assessed as bacterial growth inhibition incubated for 24 hrs by broth microdilution method. In kind it is functional.
The subject of a further assay is Pseudomonas aeruginosa. As to the kind of experiment: Antibacterial activity against Pseudomonas aeruginosa assessed as bacterial growth inhibition incubated for 24 hrs by broth microdilution method. In kind it is functional.
For the next assay, the system named is Escherichia coli. Put plainly: Antibacterial activity against Escherichia coli assessed as bacterial growth inhibition incubated for 24 hrs by broth microdilution method. In kind it is functional.

pEC50, pIC50: −log10 of the molar value. In brackets after ≈: the same amount, converted by molar mass. Activity calls are given as the source filed them.

As a reminder, the pIC50 is the IC50 on a negative log10 scale, so that one unit is a factor of ten. For orientation: MIC means the smallest concentration in the dilution series that meets the test's criterion for growth inhibition. On to `COc1cc2c(Oc3ccc4[nH]c(C)cc4c3F)ncnc2cc1O`, for which the figures for the negative logarithm of the IC50 (pIC50) at ClpP1P2 [1] and on ClpP1P2 [2] were 4.34 and under 4.00, respectively. Also, the MIC in assay [3] is over 118 µM.

In the case of `COc1cc2c(Nc3ccc4[nH]c(C)cc4c3F)ncnc2cc1OCCCN1CCCC1`, the pIC50 at ClpP1P2 [1] and at ClpP1P2 [2] was under 4.00 throughout. Besides, the MIC in assay [3] is over 89 µM.

With `COc1cc2c(Oc3ccc4cc[nH]c4c3)ncnc2cc1OCCCN1CCCC1`, the pIC50 on ClpP1P2 [1] and on ClpP1P2 [2] was under 4.00 each time. Further, in assay [3], the MIC is over 95.6 µM.

For the molecule `COc1cc2c(Oc3ccc4[nH]c(C)cc4c3F)ncnc2cc1OCCCN1CCC[C@@H](N)C1`, the pIC50 was 5.48 on ClpP1P2 [1] and 4.72 on ClpP1P2 [2]. In addition, the result in [4] was Active. Also, in assay [3], the MIC stood at 32 µM (≈ 15.3 µg/mL).

As to `COc1cc2c(OC)ncnc2cc1OCCCN1CCCC1`, the negative-log IC50 (pIC50) on ClpP1P2 [1] and at ClpP1P2 [2] was under 4.00 each time. The MIC in assay [3] is over 126 µM.

For the molecule `COc1cc(C(=O)Nc2ccc3[nH]c(C)cc3c2F)ccc1OCCCN1CCCC1`, the pIC50 is 4.57 on ClpP1P2 [1] and under 4.00 at ClpP1P2 [2]. Further, the MIC in assay [3] is over 94 µM.

For `COc1cc2c(Oc3ccc4[nH]c(C)cc4c3F)ncnc2cc1OCCCCl`, the values for the pIC50 on ClpP1P2 [1] and on ClpP1P2 [2] were 4.31 and under 4.00, respectively. The minimal inhibitory concentration (MIC) in assay [3] is over 96.2 µM.

One may read the pEC50 as the EC50 on a negative log10 scale, so that one unit is a factor of ten. On to `COc1cc2c(Oc3ccc4[nH]c(C)cc4c3F)ncnc2cc1OCCCN1CCC(c2ccc(C(N)=O)cc2)CC1`, for which the inhibition entry in assay [5] was “Active”. For the same molecule, the values for the Ratio IC50 in assay [6] and in [16] were 18.4 and 12.1, respectively. In addition, on ClpP1P2 [7], the negative-log EC50 (pEC50) is 4.92. For the same molecule, the pIC50 was 4.66 in [8]; 5.74 in assay [10]; 5.59 at ClpP1P2 [1]; 3.71 in assay [20]; 5.05 on ClpP1P2 [2]; under 4.00 at ClpP1P2 [21]. In addition, the Activity was determined as 10% in [9] and 60% in [14]. Moreover, the MIC in assay [11] is 42.8 µg/mL (≈ 73.3 µM); in [18] it was 85.7 µg/mL (≈ 147 µM); in assay [19] it was over 439 µg/mL; in assay [3] it was 12.5 µM (≈ 7.3 µg/mL). Moreover, the inhibition entry in [12] and in [15] was “inactive” throughout. Besides, the “growth inhibition (GI)” value in assay [13] and in assay [17] was “Active” each time.

Turning to `Cc1cc2c(F)c(Oc3ncnn4cc(OC[C@@H](C)O)c(C)c34)ccc2[nH]1` [BRIVANIB], the inhibition result in assay [22] was “Active”. Besides, the inhibition result in assay [12] and in [15] was “inactive” throughout. The negative-log IC50 (pIC50) at ClpP1P2 [1] is 5.16; at ClpP1P2 [2], 4.62.

Turning to `Oc1c(Cl)cc(Cl)c(Cl)c1Cc1c(O)c(Cl)cc(Cl)c1Cl` [HEXACHLOROPHENE], the inhibition result in [22] was “Active”. The negative logarithm of the IC50 (pIC50) at ClpP1P2 [1] was 5.31.

Regarding `CC(=O)NC[C@H]1CN(c2ccc(N3CCOCC3)c(F)c2)C(=O)O1` [LINEZOLID], the MIC in the assay with Staphylococcus aureus is 5.9 µM (≈ 1.99 µg/mL); in assay [23] it was 0.2 µM (≈ 0.0675 µg/mL); in [19], 5.9 µM; in the assay on Pseudomonas aeruginosa, over 379 µM; in the assay with Escherichia coli, over 379 µM; in assay [3], 0.2 µM (≈ 0.0675 µg/mL).

In the case of `CO[C@H]1/C=C/O[C@@]2(C)Oc3c(C)c(O)c4c(O)c(c(/C=N/N5CCN(C)CC5)c(O)c4c3C2=O)NC(=O)/C(C)=C\C=C\[C@H](C)[C@H](O)[C@@H](C)[C@@H](O)[C@@H](C)[C@H](OC(C)=O)[C@@H]1C` [RIFAMPIN], the MIC is 38.9 µM (≈ 32 µg/mL) in the assay on Pseudomonas aeruginosa and 4.9 µM (≈ 4.03 µg/mL) in the assay on Escherichia coli.
